The subject of assay [1] is TNBC cell line MDA-MB-231. Description: Cell viability assay, MDA-MB-231. Format: cell-based. The following applies: Homo sapiens.
The subject of assay [2] is Caki-2 cediranib-resistant cells. Description: BrdU proliferation assay, Caki-2 cediranib-resistant. The assay is classed as cell-based. The following applies: 24 and 48 hours; IC50 and ½IC50; drug-resistant.
In assay [3] the test system is TNBC cell line MDA-MB-468. Description: Cell viability assay (MTS), MDA-MB-468. The following applies: Homo sapiens, 72 h incubation. The assay is classed as cell-based. The text has this: (§1) In an embodiment, for a comparison study, monomers and respective dimers were selected and further evaluated in Hs578t and MDA-MB-468 breast cell lines. […] These cell lines correspond to the basal-like subtype of breast cancer, included in the known triple negative subtype, since they are negative for Estrogen receptor (ER), progesterone receptor (PR) and Human epidermal growth factor receptor 2 (HER2) molecular markers. The clinical behaviour of these breast cancer subtype is very aggressive and there is still no specific molecular therapy available.
(§2) In an embodiment, three human breast cancer cell lines Hs578T, MDA-MB-468 and MCF-7, and a normal breast cell line MCF-10A, were obtained from ATCC (American Type Culture Collection). The cancer cell lines were cultured in Dulbecco's modified Eagle medium, 4.5 g/l glucose (DMEM, Gibco) supplemented with 10% heating inactivated Fetal Bovine Serum (FBS, Gibco) and 1% antibiotic solution (Penicillin-Streptomycin, Gibco). The normal cell line was cultured in Dulbecco's Modified Eagle Medium: Nutrient Mixture F-12 (DMEM/F12, Gibco) supplemented with 5% heating inactivated FBS (Gibco), 1% antibiotic solution (Penicillin-Streptomycin, Gibco), 1% steroid hormone (Hydrocortisone, Sigma-Aldrich), 0.1% peptide hormone (Insulin, Sigma-Aldrich) and 0.01% protein complex (Cholera Toxin, Gibco). Two distinct human acute myeloid leukemia (AML) cell lines, HL-60 (FAB M2) and KG-1 (erythroleukemia-FAB M6), and one human lymphoblastic leukemia (ALL) cell line, Jurkat (T cell type), were also used. These three cell lines were obtained from German Collection of Microorganisms and Cell cultures (DMSZ®, Deutsche Sammlung von Mikroorganismen and Zellkulturen in German). Cells were cultured in RPMI 1640 medium (Biochrom®-Merck Millipore) supplemented with 10% heating inactivated FBS (Biochrom®-Merck Millipore) and 1% antibiotic/antimitotic mixture (Invitrogen®). Three human glioblastoma (GBM) cell line models, two established and commercially available cell lines (U87MG and GAMG, kind gift from Rui M. Reis) and one primary GBM culture (GLIB) were also used. GBM cells were cultures in DMEM (Biochrom-Merck Millipore), all supplemented with 10% FBS. The Renal cell carcinoma cell lines A498, 786-O, Caki-2 and HK2 were obtained from ATCC. The cancer cell line A498 was cultured in MEM medium (Biochrom®-Merck Millipore), 786-O was cultured in RPMI 1640 medium (Biochrom®-Merck Millipore), Caki-2 was cultured in Mc Coys medium (Biochrom®-Merck Millipore) and HK2 was cultured in RPMI 1640 medium (Biochrom®-Merck Millipore). All the media were supplemented with 10% heat inactivated FBS (Biochrom®-Merck Millipore) and 1% antibiotic/antimitotic mixture (Invitrogen®). All cells were grown in a humidified incubator at 37° C. and 5% CO2. […]

Assay [4] has as its system TNBC cell line Hs578t. Description: Cell viability assay (MTS), Hs578t. The following applies: Homo sapiens, Hs-578T; 72 h incubation. The assay is classed as cell-based.
Description: as §1
In an embodiment, three human breast cancer cell lines Hs578T, MDA-MB-468 and MCF-7, and a normal breast cell line MCF-10A, were obtained from ATCC (American Type Culture Collection). The cancer cell lines were cultured in Dulbecco's modified Eagle medium, 4.5 g/l glucose (DMEM, Gibco) supplemented with 10% heating inactivated Fetal Bovine Serum (FBS, Gibco) and 1% antibiotic solution (Penicillin-Streptomycin, Gibco). The normal cell line was cultured in Dulbecco's Modified Eagle Medium: Nutrient Mixture F-12 (DMEM/F12, Gibco) supplemented with 5% heating inactivated FBS (Gibco), 1% antibiotic solution (Penicillin-Streptomycin, Gibco), 1% steroid hormone (Hydrocortisone, Sigma-Aldrich), 0.1% peptide hormone (Insulin, Sigma-Aldrich) and 0.01% protein complex (Cholera Toxin, Gibco). Two distinct human acute myeloid leukemia (AML) cell lines, HL-60 (FAB M2) and KG-1 (erythroleukemia-FAB M6), and one human lymphoblastic leukemia (ALL) cell line, Jurkat (T cell type), were also used. These three cell lines were obtained from German Collection of Microorganisms and Cell cultures (DMSZ®, Deutsche Sammlung von Mikroorganismen and Zellkulturen in German). Cells were cultured in RPMI 1640 medium (Biochrom®-Merck Millipore) supplemented with 10% heating inactivated FBS (Biochrom®-Merck Millipore) and 1% antibiotic/antimitotic mixture (Invitrogen®). Three human glioblastoma (GBM) cell line models, two established and commercially available cell lines (U87MG and GAMG, kind gift from Rui M. Reis) and one primary GBM culture (GLIB) were also used. GBM cells were cultures in DMEM (Biochrom-Merck Millipore), all supplemented with 10% FBS. The Renal cell carcinoma cell lines A498, 786-O, Caki-2 and HK2 were obtained from ATCC. The cancer cell line A498 was cultured in MEM medium (Biochrom®-Merck Millipore), 786-O was cultured in RPMI 1640 medium (Biochrom®-Merck Millipore), Caki-2 was cultured in Mc Coys medium (Biochrom®-Merck Millipore) and HK2 was cultured in RPMI 1640 medium (Biochrom®-Merck Millipore). All the media were supplemented with 10% heat inactivated FBS (Biochrom®-Merck Millipore) and 1% antibiotic/antimitotic mixture (Invitrogen®). All cells were grown in a humidified incubator at 37° C. and 5% CO2. For all assays, DMSO (Dimethyl Sulfoxide, Sigma-Aldrich) controls were used.
In an embodiment, cell viability assays were performed. MCF-7, Hs578T and MCF-10A cells were plated in triplicate in 96-multiwell culture plates, at 3000 cells […], or 5000 cells […] for MDA-MB-468 (100 μL/well). The cells were then allowed to adhere in complete medium, over a period of 18-20 hours. Cells were subsequently treated with 7 different concentrations (from 0.1 to 40 μM or 5 to 60 μM) of compounds or control in fresh medium. HL-60, KG-1 and Jurkat cell lines were plated in 96-multiwell culture plates at 50.000 cells/100 μL per well and treated with different concentrations (from 0.001 to 2 μM) of the compounds described (or control). Cells were plated, in triplicate, at an initial density of 2000 cells/well for GAMG, 4000 cells/well for GL18 and 6000 cells/well for U87MG, in 96-well plates, and allowed to adhere for 18-20 hours. Cells were then treated with different concentrations of the compounds (0.005 to 100 μM) or with control. […]

The test system of assay [5] is acute leukemia cell line HL-60. Description: Cell viability MTS assay, HL-60. The assay is classed as cell-based. The following applies: Homo sapiens, 72 hours. As to the method: (§3) In an embodiment, the antiproliferative activity of compounds MC408, MC409, MC421 and MC406 was further determined against glioma cell lines (U87, GAMG and GL18) and acute leukemia cell lines (HL-60, KG-1 and Jurkat). This was done in order to evaluate if the compounds presented an equally interesting anticancer profile in other cancer cell models. Cell viability was determined using the MTS assay, after exposure of the cells to the respective compounds for 72 hours at appropriate concentration ranges to determine the respective IC50 values.
as §2
(Tetrazolium assays rely on reduction of a dye to a coloured formazan, in cell work by metabolically active cells.)

Assay [6] deals with acute leukemia cell line KG-1. Description: Cell viability MTS assay, KG-1. Format: cell-based. As to conditions: Homo sapiens, 72 hours. On the procedure:
as §3, §2

Assay [7] concerns acute leukemia cell line Jurkat. Description: Cell viability MTS assay, Jurkat. The assay is classed as cell-based. The following applies: Homo sapiens, 72 hours. On the procedure: as §3, §2
Assay [8] concerns Hs578t cells. Description: Annexin V/PI flow cytometry, Hs578t. The assay is classed as cell-based, human. As to conditions: IC50 concentration; 24 h. The text has this: In an embodiment, to understand the mechanisms leading to cell death, cells were studied for the induction of apoptosis by flow cytometry. […] Externalization of phosphatidylserine occurs during the early apoptotic events. While annexin V binds to phosphatidylserine, PI stains only cells that have lost their membrane integrity, an experimental procedure which allows the discrimination between viable cells, early apoptotic cells, late apoptotic/necrotic cells or necrotic cells.
In an embodiment, MCF-7, Hs578t and 786-O cells were seeded in 6-well culture plates and allowed to adhere over 18-20 hours in a complete DMEM (for MCF-7 and Hs578t cells) and complete RPMI (for 786-O cells) medium to detect apoptosis via flow cytometry analysis. […] Triplicates were performed in each experiment. Floating and adherent cells were collected and combined by centrifugation. Elimination of the supernatant was followed by addition of 1 mL of Binding Buffer. 8 μL FITC annexin V (556419, BD Pharmingen) and 30 μl of PI (50 μg/mL, P1304MP, Invitrogen) were added to the cell pellet. Samples were incubated in the dark for 15 min at room temperature. A further 200 μL of Binding Buffer was added to each sample. PI signal was measured using FACS LSRII flow cytometer (BD Biosciences®) with 488 nm excitation laser. The annexin V signal was collected through a 488 nm blocking filter, a 550 nm long-pass dichroic with a 525 nm band pass. Signals were captured and FACS Diva was used as the acquisition software. The percentage of cells in each phase was analysed using the FlowJo 7.6 (Tree Star®) software. Three independent biological replicates were performed.
On the technique in general: In flow cytometry, cells or beads pass a laser one at a time.

Assay [9] relates to A498 rapamycin-resistant cells. Description: BrdU proliferation assay, A498 rapamycin-resistant. Format: cell-based. The following applies: 24 and 48 hours, IC50 and ½IC50.

pIC50: −log10 of the molar value.

Usually pIC50 stands for −log10 of the IC50, conventionally taken in molar units. Higher therefore signals a low IC50. `COc1cccc2c1Oc1nc(-c3ccccc3)[nH]c1C2` [MC350, 5-methoxy-2-phenyl-3,9-dihydrochromeno[2,3-d]imidazoles] had a negative-log IC50 (pIC50) in [1] of 5.60. Besides, in [2], the “effect on cell proliferation (BrdU)” value is listed as “decrease cell proliferation”.

`COc1cccc2c1Oc1nc(-c3ccccc3F)[nH]c1C2C1c2cccc(OC)c2Oc2nc(-c3ccccc3F)[nH]c21` (stereo not shown) [MC369, 2,2′-bis(2-fluorophenyl)-5,5′-dimethoxy-1,1,9,9′-tetrahydro-9,9′-bichromeno[2,3-]imidazoles]: the negative-log IC50 (pIC50) in assay [1] was 5.60.

Usually IC50 stands for the midpoint of a concentration-inhibition curve. A low value points to greater potency. Regarding `COc1cccc2c1Oc1nc(-c3ccc(F)cc3)[nH]c1C2C1c2cccc(OC)c2Oc2nc(-c3ccc(F)cc3)[nH]c21` (stereo not shown) [MC406, 2,2′-bis(4-fluorophenyl)-5,5′-dimethoxy-1,1,9,9′-tetrahydro-9,9′-bichromeno[2,3-]imidazoles], the pIC50 is 6.49 in [3], 5.89 in [1] and 7.28 in assay [4]. In addition, the IC50 was determined as 0.65 µM in assay [5], 1.01 µM in assay [6] and 0.12 µM in assay [7]. In addition, the “induction of cell death by apoptosis (annexin V/PI)” value (“induction of cell death” below) in [8] is listed as “induced cell death by apoptosis”.

For `COc1cccc2c1Oc1nc(-c3ccccc3F)[nH]c1C2` [MC407, 2-(2-fluorophenyl)-5-methoxy-3,9-dihydrochromeno[2,3-d]imidazoles], the negative-log IC50 (pIC50) in assay [1] is 5.78.

Turning to `COc1cccc2c1Oc1nc(-c3ccc(Br)cc3)[nH]c1C2` [MC408, 2-(4-bromophenyl)-5-methoxy-3,9-dihydrochromeno[2,3-d]imidazoles], the values for the pIC50 in assay [3], in assay [1] and in [4] were 7.57, 5.59 and 7.33, respectively. Further, the IC50 was 0.57 µM in assay [5], 0.64 µM in assay [6] and 0.19 µM in assay [7]. Besides, in [8], the “induction of cell death” value is “inducing cell death by apoptosis (early apoptosis)”. Besides, the “effect on cell proliferation (BrdU)” value in [9] is recorded as “significant decrease in cell proliferation”.

For `COc1cccc2c1Oc1nc(-c3ccc(F)cc3)[nH]c1C2` [MC409, 2-(4-fluorophenyl)-5-methoxy-3,9-dihydrochromeno[2,3-d]imidazoles], the figures for the pIC50 in assay [3], in [1] and in assay [4] were 6.92, 5.57 and 6.57, respectively. Also, the IC50 in assay [5] worked out at 0.65 µM; in assay [6], 1.02 µM; in assay [7], 0.37 µM. Further, the “induction of cell death” value in assay [8] is “induced cell death by apoptosis”.

In the case of `COc1cccc2c1Oc1nc(-c3cc(F)cc(F)c3O)[nH]c1C2` [MC410, 2,4-difluoro-6-(5-methoxy-3,9-dihydrochromeno[2,3-d]imidazol-2-yl)phenol], the pIC50 was < 4.52 in assay [1] and < 4.70 in assay [4].

`COc1ccccc1-c1nc2c([nH]1)Cc1cccc(OC)c1O2` [MC411, 5-methoxy-2-(2-methoxyphenyl)-3,9-dihydrochromeno[2,3-]imidazoles]: the pIC50 in assay [1] was 5.75; in assay [4], 5.06.

On to `COc1cccc2c1Oc1nc(-c3ccc(O)cc3)[nH]c1C2` [MC413, 4-(5-methoxy-3,9-dihydrochromeno[2,3-d]imidazol-2-yl)phenol], for which the pIC50 in [1] is 6.20; in [4], 6.00. In addition, the “effect on cell proliferation (BrdU)” value in assay [9] is “significant decrease in cell proliferation”; in [2], “decrease cell proliferation”.

With `CCOc1ccc(-c2nc3c([nH]2)Cc2cccc(OC)c2O3)cc1` [MC415, 2-(4-ethoxyphenyl)-5-methoxy-3,9-dihydrochromeno[2,3-d]imidazoles], the pIC50 is 5.85 in assay [1] and 6.24 in assay [4].

`COc1ccc(-c2nc3c([nH]2)Cc2cccc(OC)c2O3)c(Br)c1O` [MC416, 2-bromo-6-methoxy-3-(5-methoxy-3,9-dihydrochromeno[2,3-]imidazol-2-yl)phenol] showed a pIC50 in [4] of 5.50.

For `COc1cccc2c1Oc1nc(-c3ccc(Br)cc3)[nH]c1C2C1c2cccc(OC)c2Oc2nc(-c3ccc(Br)cc3)[nH]c21` (stereo not shown) [MC421, 2,2′-bis(4-bromophenyl)-5,5′-dimethoxy-1,1,9,9′-tetrahydro-9,9′-bichromeno[2,3-]imidazoles], the results for the negative-log IC50 (pIC50) in assay [3], in assay [1] and in assay [4] were 6.36, 5.53 and 7.46, respectively. For the same compound, the IC50 in [5] turned out to be 0.25 µM; in assay [6] it was 0.93 µM; in assay [7] it was 0.18 µM. For the same compound, the “induction of cell death” value in assay [8] is listed as “inducing cell death by apoptosis (early apoptosis)”. Besides, the figures for the “effect on cell proliferation (BrdU)” value in assay [9] and in [2] were “significant decrease in cell proliferation” and “decrease cell proliferation”, respectively.

(Values after patent US12391701B2, “Chromene-based compounds, methods and uses thereof” (University of Minho, priority 2019, dated 2025).)
